Test results published in patent US6972319B1, “Pituitary adenylate cyclase activating peptide (PACAP)receptor 3 (R3) agonists and their pharmacological methods of use” (priority 1999, dated 2005).
No end group written: not given here.

Key:
PACAP-R3 = biological target: T1, PACAP-R3 (Homo sapiens, UniProt P41587); assay: Cyclic AMP SPA on CHO cells expressing PACAP R3; type: cell-based; set-up: expressed in transfected cells; host or cells: CHO cells (Geneticin selection); conditions: for EC50: cAMP SPA, CHO cells transfected with PACAP-R3, concentration at which 50% of maximum PACAP27 activity is achieved, NA = no detectable activities, read-out: R3 EC50; for R3 Selectivity: ratio of EC50 at R2 versus EC50 at R3
T1 sequence (P41587 24-438): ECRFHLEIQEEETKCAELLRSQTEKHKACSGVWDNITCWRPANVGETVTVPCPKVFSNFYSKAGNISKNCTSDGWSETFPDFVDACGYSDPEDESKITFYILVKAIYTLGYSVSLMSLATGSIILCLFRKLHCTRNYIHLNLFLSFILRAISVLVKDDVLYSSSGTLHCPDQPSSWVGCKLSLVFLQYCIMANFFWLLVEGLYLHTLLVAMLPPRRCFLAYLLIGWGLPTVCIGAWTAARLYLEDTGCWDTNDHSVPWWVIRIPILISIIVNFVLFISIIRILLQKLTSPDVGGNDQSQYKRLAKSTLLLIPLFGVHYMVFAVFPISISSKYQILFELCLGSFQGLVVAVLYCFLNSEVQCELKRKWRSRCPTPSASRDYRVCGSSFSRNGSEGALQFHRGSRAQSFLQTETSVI
Method: (§1) CHO cells expressing the PACAP R3 were plated in 96-well plates (Costar) at 8×10^4 cell/well and grown at 37 C. for 24 hours in α MEM+nucleosides+glutamine (Giobco BRL), 10% FBS, 100 μg/ml Pen/Strep, 0.3 mg/ml glutamine, 1 mM HEPES, 0.5 mg/ml Geneticin (Gibco BRL). The media was removed and the plates were washed with PBS. The cells were incubated with a peptide, in Hepes-PBS-BSA with 0.4 mg/mlSoybean Trypsin Inhibitor, 0.5 mg/ml Bacitracin, 100 uM IBMX, for 15 min at 37 C. Cyclic AMP in the cell extracts was quantitated using the cAMP SPA direct screening assay system (Amersham Pharmacia Biotech Inc, Piscataway, N.J.,). The peptides shown in Table 3 were assayed for cAMP activity.
(§2) EC50 is defined as the concentration of the polypeptide at which 50% of maximum PACAP27 activity is achieved. “NA” denotes no detectable activities. “R3 Selectivity” is derived from the ratio of EC50 at R2 versus EC50 at R3.

PACAP-R2 = biological target: T2, PACAP-R2 (Homo sapiens, UniProt P32241); assay: Cyclic AMP SPA on CHO cells transfected with PACAP-R2; type: cell-based; conditions: cAMP SPA, concentration at which 50% of maximum PACAP27 activity is achieved, NA = no detectable activities, read-out: R2 EC50
T2 construct: expressed in transfected cells; host or cells: CHO cells
T2 sequence (P32241 31-457): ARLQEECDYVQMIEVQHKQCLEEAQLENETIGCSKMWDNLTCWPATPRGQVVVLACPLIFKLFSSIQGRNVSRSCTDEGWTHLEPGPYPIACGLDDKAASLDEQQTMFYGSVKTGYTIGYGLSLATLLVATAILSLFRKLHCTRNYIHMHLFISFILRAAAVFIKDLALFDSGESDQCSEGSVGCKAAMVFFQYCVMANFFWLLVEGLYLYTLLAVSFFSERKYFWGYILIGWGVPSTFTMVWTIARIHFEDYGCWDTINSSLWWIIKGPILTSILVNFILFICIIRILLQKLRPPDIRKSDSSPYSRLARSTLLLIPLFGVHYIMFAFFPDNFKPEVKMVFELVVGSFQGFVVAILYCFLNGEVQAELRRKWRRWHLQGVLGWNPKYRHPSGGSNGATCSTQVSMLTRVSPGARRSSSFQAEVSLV
Method: as §1, §2

Row | Compound | EC50 (PACAP-R3) | R3 Selectivity (PACAP-R3) | EC50 (PACAP-R2)
1 | CC[C@H](C)[C@H](NC(=O)[C@H](CO)NC(=O)[C@H](CC(N)=O)NC(=O)[C@H](CC(C)C)NC(=O)[C@H](Cc1ccc(O)cc1)NC(=O)[C@H](CCCCN)NC(=O)[C@H](CCCCN)NC(=O)[C@@H](NC(=O)[C@H](C)NC(=O)[C@H](CCSC)NC(=O)[C@H](CCC(N)=O)NC(=O)[C@H](CCCCN)NC(=O)[C@H](CCCNC(=N)N)NC(=O)[C@H](CC(C)C)NC(=O)[C@H](CCCNC(=N)N)NC(=O)[C@@H](NC(=O)[C@H](Cc1ccc(O)cc1)NC(=O)[C@H](CC(N)=O)NC(=O)[C@H](CC(=O)O)NC(=O)[C@@H](NC(=O)[C@H](Cc1ccccc1)NC(=O)[C@@H](NC(=O)[C@H](C)NC(=O)[C@H](CC(=O)O)NC(=O)[C@H](CO)NC(=O)[C@@H](N)Cc1c[nH]cn1)C(C)C)[C@@H](C)O)[C@@H](C)O)C(C)C)C(=O)N[C@@H](CCCCN)C(=O)N[C@@H](CC(N)=O)C(=O)N[C@@H](CCCCN)C(=O)N[C@@H](CCCNC(=N)N)C(=O)N[C@@H](Cc1ccc(O)cc1)C(=O)O [Peptide R3P59] | 0.15 nM | 70 | 10 nM
2 | Ac-HSDAVFTENYTKLRKQLAAKKYLNDLKKGGT-NH2 [Peptide R3P1] | 2 nM | >50 | > 100 nM
3 | ESDGIFTDSYSRYRKQMAVKKYLAAVL-NH2 [PAC1] | 10 nM | 97 | 970 nM
4 | H-HSDAVFTDNYTRLRKQLAAKKYLNDIKKNQ [Peptide R3P35] | 2.6 nM | >40 | > 100 nM
5 | H-HSDAVFTDNYTRLRKQMAAKHYLNSIKNKRY [Peptide R3P74] | 0.6 nM | 150 | 90 nM
6 | H-HSDAVFTDNYTRLRKQMAAKKYLNDIKKGGT [Peptide R3P20] | 1.4 nM | 230 | 330 nM
7 | H-HSDAVFTDNYTRLRKQMAAKKYLNSIDNKR [Peptide R3P118] | 0.5 nM | 30 | 15 nM
8 | H-HSDAVFTDNYTRLRKQMAAKKYLNSIKNKD [Peptide R3P155] | 0.4 nM | 100 | 40 nM
9 | H-HSDAVFTDNYTRLRKQMAAKKYLNSIKNKH [Peptide R3P159] | 0.5 nM | 400 | 200 nM
10 | H-HSDAVFTDNYTRLRKQMAAKKYLNSIQNKR [Peptide R3P127] | 0.5 nM | 600 | 300 nM
11 | H-HSDAVFTDNYTRLRKQMAAKKYLNSISNKR [Peptide R3P129] | 1 nM | 50 | 50 nM
12 | H-HSDAVFTDNYTRLRKQMAGKKYLNSIRNRI [rR3P190] | 2.2 nM | 100 | 220 nM
13 | H-HSDAVFTDNYTRLRKQMAKKKYLNSIKNKR [Peptide R3P104] | 0.2 nM | 500 | 100 nM
14 | H-HSDAVFTDNYTRLRKQMAVKKYLNSIKN [Peptide R3P42] | 0.03 nM | 10 | 0.3 nM
15 | H-HSDGIFTDSYSEYRKQMAVKKYLAAVL-NH2 [PAC12] | 3 nM | 50 | 150 nM
16 | H-HSDGIFTDSYSRYRKQLAAKKYLADVKKGGT [Peptide R3P37] | 4 nM | 18 | 71 nM
17 | H-HSDGIFTDSYSRYRKQMAKKKYLAAVL-NH2 [PAC19] | 0.4 nM | 20 | 8 nM
18 | H-HSDGIFTDSYSRYRKQMAVKKYKAAVL-NH2 [PAC23] | 13 nM | 13 | 170 nM
19 | H-HSDGIFTDSYSRYRKQMAVKKYLAAVKQGGT-NH2 [Peptide R3P16] | 10 nM | 1.4 | 14 nM
20 | H-HSDGIFTESYSRYRKQMAVKKYLAALKKKRYKQRVKNK [Peptide R3P6] | 80 nM | 3 | 220 nM
21 | HSDAVFTDNYTKLRKQLAAKKYLNDILNGGT [Peptide R3P11] | 3 nM | 3 | 10 nM
22 | HSDAVFTDNYTRLRKQIAAKKYLQTIKK [Peptide R3P61] | 0.8 nM | 140 | 110 nM
23 | HSDAVFTDNYTRLRKQLAAKKYLNDIKK [Peptide R3P33] | 0.5 nM | >200 | > 100 nM

Row | Compound | EC50 (PACAP-R3) | R3 Selectivity (PACAP-R3) | EC50 (PACAP-R2)
24 | HSDAVFTDNYTRLRKQLAAKKYLNDIKKGG [Peptide R3P31] | 0.3 nM | >300 | > 100 nM
25 | HSDAVFTDNYTRLRKQLAAKKYLNDIKKQ [Peptide R3P34] | 1.4 nM | >70 | > 100 nM
26 | HSDAVFTDNYTRLRKQLAAKKYLNDILKGGT [Peptide R3P23] | 0.43 nM | 23 | 10 nM
27 | HSDAVFTDNYTRLRKQLAAKKYLNDILNGGT [Peptide R3P27] | 0.8 nM | 8 | 6.4 nM
28 | HSDAVFTDNYTRLRKQLAAKKYLNSIKKGGT [Peptide R3P22] | 1.6 nM | 24 | 38 nM
29 | HSDAVFTDNYTRLRKQLAAKKYLNSIKNGGT [Peptide R3P30] | 0.4 nM | 50 | 20 nM
30 | HSDAVFTDNYTRLRKQLAVKKYLNDIKNGGT [Peptide R3P29] | 0.5 nM | >200 | > 100 nM
31 | HSDAVFTDNYTRLRKQLAVKKYLNSIKKGGT [Peptide R3P25] | 0.7 nM | 20 | 15 nM
32 | HSDAVFTDNYTRLRKQLAVKKYLNSILN [Peptide R3P46] | 0.06 nM | 7 | 0.4 nM
33 | HSDAVFTDNYTRLRKQMAAHKYLNSIKNKRY [Peptide R3P73] | 0.3 nM | 170 | 50 nM
34 | HSDAVFTDNYTRLRKQMAAKKYLNSIANKR [Peptide R3P116] | 1 nM | 20 | 20 nM
35 | HSDAVFTDNYTRLRKQMAAKKYLNSIENKR [Peptide R3P119] | 0.5 nM | 30 | 15 nM
36 | HSDAVFTDNYTRLRKQMAAKKYLNSIFNKR [Peptide R3P120] | 0.2 nM | 50 | 10 nM
37 | HSDAVFTDNYTRLRKQMAAKKYLNSIHNKR [Peptide R3P122] | 0.2 nM | 50 | 10 nM
38 | HSDAVFTDNYTRLRKQMAAKKYLNSIKKGGT [Peptide R3P26] | 0.55 nM | >180 | > 100 nM
39 | HSDAVFTDNYTRLRKQMAAKKYLNSIKKK [Peptide R3P54] | 0.5 nM | >200 | > 100 nM
40 | HSDAVFTDNYTRLRKQMAAKKYLNSIKKKR [Peptide R3P53] | 0.2 nM | 2500 | 500 nM
41 | HSDAVFTDNYTRLRKQMAAKKYLNSIKKKRY [Peptide R3P52] | 0.4 nM | >250 | > 100 nM
42 | HSDAVFTDNYTRLRKQMAAKKYLNSIKN [Peptide R3P49] | 0.27 nM | 30 | 8 nM
43 | HSDAVFTDNYTRLRKQMAAKKYLNSIKNDR [Peptide R3P136] | 0.3 nM | 70 | 20 nM
44 | HSDAVFTDNYTRLRKQMAAKKYLNSIKNER [Peptide R3P137] | 0.3 nM | 100 | 30 nM
45 | HSDAVFTDNYTRLRKQMAAKKYLNSIKNGR [Peptide R3P139] | 0.4 nM | 50 | 20 nM
